Results as given in patent US8758769B2, “Composition for preventing and treating acetaminophen inducing liver injury comprising the protein extract from Porphyra yezoensis” (Pukyong National University Industry Academic Cooperation …, priority 2006, dated 2014).

How the values were obtained:
[1] = system: PCNA and caspase-3 in liver cell; test: Liver cell injury inhibition by seaweed protein: PCNA and caspase-3 expression (western blot); type: cell-based; conditions: 20 mM AAP with or without seaweed protein
Procedure: Through the above results, it is confirmed that the cell apoptosis of the liver cell is induced by the increase of the AAP concentration and accordingly, the seaweed protein and AAP are processed together and the liver injury inhibition effect of the seaweed protein by AAP is confirmed.
At first, the degree of the PCNA protein expression capable of securing the recovery of the injured cell is confirmed. For this, a liver tissue is homogenized by lysis buffer (25 mM HEPES, pH 7.5, 5 mM EDTA, 2 mM DTT, 0.1% CHAPS) containing the protease inhibitor and then centrifuged by 14,000×g at 4° C. Thereafter, the protein concentration of the obtained upper layer solution is measured by means of a BCA protein assay kit. A loading process is performed by 50[…] per each lane, an electrophoresis process is performed by SDS-PAGE, and thereafter it is moved toward the PVDF membrane (Millipore, USA). At this time, the rainbow molecular marker (amersham) is used as the standard molecular weight. In the separated protein, the expressin of the caspase-3 protein is confirmed by means of Super Signal West Pico Chemiluminescent Substrate (pierce biotechnology incorporation, USA). […]

HepG2 liver cell [2] = test: Proliferation of HepG2 liver cell by AAP treatment (MTS/MTT); type: cell-based; conditions: AAP in serum free medium, 24 hours and 48 hours, FIG. 7
Procedure: The used HepG2 liver cell is distributed by ATCC (American Type Culture Center).
Antibiotics (penicillin/streptomycin) of 100 units/ml is added to an MEM medium and then filtrated by a filter of 0.22[…]. Before the culture, FBS (Fetal bovine serum) is added, thereby obtaining the final concentration of 10%. The cell is cultured in a 5% CO2 incubator at 37° C. During the culture of the cell, the medium is replaced by twice a week and when the medium is a confluent state, the medium is washed by PBS (Phosphate Buffered Saline). Thereafter, the attached cells are separated by 0.05% of trypsin solution and centrifuged, then each cell is mixed, dispersed properly by using a pipet and divided identically.
To examine the cell proliferation and the toxicity, the HepG2 liver cell is controlled by concentration of 5×10^4 cells/ml, and divided into 96-well microplates (palcon, USA) by 100[…] per a well and cultured. After 24 hours, a medium is replaced with a serum free medium and then cultured again for 24 hours. A protein sample is dissolved into the serum free medium, then diluted until 0.01% concentration. The dilution solution by each concentration is added to each cell line and cultured for 24 hours at the 5% CO2 incubator at 37° C. […] Thereafter, the absorbance at 490 nm is measured by using an automatic ELIZA reader and the cell survival ratio is calculated by a calculation formula 1. […]

[3] = system: GSH (Glutathione) in the liver tissue; test: Glutathione content in the liver tissue; type: in vivo, rat; conditions: rats, AAP 700 mg/kg; compared with the control group of 100%
Procedure: Accordingly, the GSH activity in the liver tissue is measured. For this, the liver tissue is homogenized by 5% of sulfosalicylic acid, then frozen by the liquid nitrogen and thereafter a thaw process is executed repeatedly by twice in a cistern of 37° C. Thereafter, the defrosted liver tissue is left for 5 minutes At 4° C. and centrifuged at 4° C., 1,000×g, for 10 minutes, so that the upper solution is obtained. The upper solution and the standard solution within the GSH assay kit are divided into a 96-well plate, respectively, thereafter a working mixture is added to the 96-well plate, and a reaction is progressed at the room temperature for 5 minutes. After 5 minutes, NADPH is inserted into the above plate and mixed through a pipet and then the absorbance is measured by the interval of 5 minutes at 412 nm.

HepG2 liver cell [4] = test: LDH activity, toxicity of HepG2 liver cell by AAP treatment; type: cell-based; conditions: HepG2, AAP 10, 20 and 40 mM
Procedure: To examine the toxicity of the liver cell by the AAP treatment, the activity of LDH is measured. That is, 100[…] per a well with the concentration of 2×10^4 cells/ml is divided into 96-well microplates (palcon, USA) and cultured. After 24 hours, a medium is replaced with an MEM medium including 1% FBS, then cultured again for 24 hours, and thereafter treated by an assay medium of 100[…] and AAP 100[…] (10, 20 and 40 mM). The obtained upper solution of 100[…] is moved into a new 96-well microplate, then 100[…] of the reaction mixture (solution I 250[…]+solution II 11.25[…]) is added to the new 96-well microplate. Thereafter, at the state that the light is intercepted by foil, a reaction is progressed for 30 minutes at 15˜25° C. Thereafter, the absorbance at 490 nm is measured by using an automatic ELIZA reader.

## CC(=O)Nc1ccc(O)cc1 [AAP, Acetaminophen]
[1]
  Cleaved caspase-3 with activation (FIG. 9): the activated and cleaved caspase-3 is increased
HepG2 liver cell [2]
  Proliferation of the HepG2 liver cell: inhibited according to increase of the AAP concentration and the culture time
[3]
  GSH content in the liver tissue: 85.39±4.81%
HepG2 liver cell [4]
  Activity of LDH (degree of liver cell injury): increased in proportion to the AAP concentration
